Measurements taken from patent US6939951B1, “Refolding of membrane proteins” (M-Phasys GmbH, priority 1999, dated 2005).

Legend:
AO adenosine receptor = assay: adenosine binding to refolded receptor by flow dialysis; set-up: species or system shark Squalus acanthias; settings: refolded receptor in Alkyl(C16)phosphorylcholine/lipid micelles, after 48 hours at 4° C.
Excerpt: The cDNA of one of the following receptors is, in-frame, inserted into the vector pGEX2a-c-His: AO adenosine receptor from the shark Squalus acanthias, human beta-2-adrenergic receptor, human neuropeptide YY1 receptor, human neuropeptide YY2 receptor, human melanocortine-1 receptor, human oxytocin receptor. This vector contains downstream of the Tac-promotor the sequence encoding glutathione-S-transferase and a subsequent thrombin cleavage site, followed by a polylinker sequence and, finally, six histidine codons and a stop codon.
2 ml of 3% sarcosyl are resuspended in PBS and stored on ice. 2 ml of inclusion bodies obtained in example 2 are added and mixed and treated for one minute with sonication. Immediately afterwards, 16 ml of 0.1% detergent stock solution in PBS are added.
Thereafter, a dialysis against 2 l of PBS is performed for four hours, as well as adding of 1 mM of GSH/0.1 mM GSSG from a 100× stock solution in water.
The solution is then stored for 48 hours at 4° C., whereupon, by flow dialysis, the adenosine binding was detectable, i.e. the receptor was present in native form.

[1] = cmc-value (critical micellar concentration) of detergents, own measurements of the inventors; assay type: physicochemical; settings: reflects solubility of detergent in water
Excerpt: The inventors of the submitted application have, namely, recognized that the low yield and the lacking reproducibility in the known methods is to be assigned to the second detergent. […] Further, it has to be taken care that the second detergent, in its final concentration, is above the critical micellar concentration. […] Above the cmc-value, the concentration of solved detergent-monomers is constant.
According to own measurements of the inventors, the cmc-values for alkyl-phosphorylcholine with an alkyl rest of C12, C13, C14 or C16 are 500, 150, 50 or 5 μM.

adenosine binding (AO adenosine receptor) | cmc-value [1] [µM] | SMILES
 | 50 | CCCCCCCCCCCCCCOP(=O)([O-])OCC[N+](C)(C)C [alkyl-phosphorylcholine C14]
 | 5 | CCCCCCCCCCCCCCCCOP(=O)([O-])OCC[N+](C)(C)C [alkyl-phosphorylcholine C16]

Continued, molecule first:

SMILES | adenosine binding (AO adenosine receptor) | cmc-value [1] [µM]
Nc1ncnc2c1ncn2[C@@H]1O[C@H](CO)[C@@H](O)[C@H]1O [adenosine] | detectable | 
CCCCCCCCCCCCOP(=O)([O-])OCC[N+](C)(C)C [alkyl-phosphorylcholine C12] |  | 500
CCCCCCCCCCCCCOP(=O)([O-])OCC[N+](C)(C)C [alkyl-phosphorylcholine C13] |  | 150
